The supplement of paper PMC10307832

Legend:
Experiment in all cases: relative viability (nuclei count vs DMSO), 5 days (fraction); higher = more cells survive
[1] = compound: Cn1nnc2c(C(N)=O)ncn2c1=O [Temozolomide] + CC(C)C[C@H](NC(=O)[C@H](Cc1ccccc1)NC(=O)c1cnccn1)B(O)O [Bortezomib] (partner 0.002 µM)
In short: (§1)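 After 5 days of treatment, lung cancer cells in 1536-well plates were fixed and stained in a single step (final 0.05% Triton X-100, 1% formaldehyde, 1 ug/ml Hoechst) and their nuclei counted on 4× images. Treatment had been applied by pin tool the day after seeding as one drug alone or as a fixed anchor-drug dose with five library-drug doses (not always all listed) in √10 steps. Relative viability is the nuclei count of treated wells divided by that of vehicle wells, and values are medians of duplicate plates.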

AZD5582 + Alpelisib = compound: C[C@@H](C(=O)N[C@@H](C1CCCCC1)C(=O)N2CCC[C@H]2C(=O)N[C@@H]3[C@@H](CC4=CC=CC=C34)OCC#CC#CCO[C@@H]5CC6=CC=CC=C6[C@@H]5NC(=O)[C@@H]7CCCN7C(=O)[C@H](C8CCCCC8)NC(=O)[C@H](C)NC)NC [AZD5582] + Cc1nc(NC(=O)N2CCC[C@H]2C(N)=O)sc1-c1ccnc(C(C)(C)C(F)(F)F)c1 [Alpelisib] (partner 2 µM)
In short: as §1

AZD5582 + Olaparib = compound: C[C@@H](C(=O)N[C@@H](C1CCCCC1)C(=O)N2CCC[C@H]2C(=O)N[C@@H]3[C@@H](CC4=CC=CC=C34)OCC#CC#CCO[C@@H]5CC6=CC=CC=C6[C@@H]5NC(=O)[C@@H]7CCCN7C(=O)[C@H](C8CCCCC8)NC(=O)[C@H](C)NC)NC [AZD5582] + O=C(c1cc(Cc2n[nH]c(=O)c3ccccc23)ccc1F)N1CCN(C(=O)C2CC2)CC1 [Olaparib] (partner 8 µM)
In short: as §1

[2] = compound: Cn1nnc2c(C(N)=O)ncn2c1=O [Temozolomide] + C[C@]1(O)C[C@@H](c2nc(-c3ccc4ccc(-c5ccccc5)nc4c3)c3c(N)nccn32)C1 [Linsitinib] (partner 1 µM)
In short: as §1

| Cell Line | relative viability ([1]; first compound 0.2 µM) | relative viability ([1]; first compound 0.6325 µM) | relative viability ([1]; first compound 2 µM) | relative viability ([1]; first compound 6.325 µM) | relative viability ([1]; first compound 20 µM) | relative viability (AZD5582 + Alpelisib; first compound 0.001581 µM) | relative viability (AZD5582 + Alpelisib; first compound 0.005 µM) | relative viability (AZD5582 + Alpelisib; first compound 0.01581 µM) | relative viability (AZD5582 + Alpelisib; first compound 0.05 µM) | relative viability (AZD5582 + Olaparib; first compound 0.001581 µM) | relative viability (AZD5582 + Olaparib; first compound 0.005 µM) | relative viability (AZD5582 + Olaparib; first compound 0.01581 µM) | relative viability (AZD5582 + Olaparib; first compound 0.05 µM) | relative viability ([2]; first compound 0.2 µM) | relative viability ([2]; first compound 0.6325 µM) | relative viability ([2]; first compound 2 µM) | relative viability ([2]; first compound 6.325 µM) | relative viability ([2]; first compound 20 µM) |
| --- | --- | --- | --- | --- | --- | --- | --- | --- | --- | --- | --- | --- | --- | --- | --- | --- | --- | --- |
| 201T | 1.15 | 1.08 | 1.08 | 1.07 | 1.08 | 1.05 | 1.07 | 0.977 | 1.25 | 0.916 | 0.904 | 0.778 | 0.989 | 0.975 | 1.07 | 1.11 | 1.04 | 0.991 |
| A549 |  |  |  |  |  | 0.713 | 0.717 | 0.769 | 0.835 | 0.283 | 0.301 | 0.292 | 0.36 | 0.348 | 0.684 | 0.759 | 0.517 | 0.467 |
| A-427 | 1 | 0.934 | 0.993 | 0.87 | 0.616 | 0.996 | 1.01 | 1.04 | 0.881 | 0.678 | 0.716 | 0.729 | 0.59 | 1.1 | 1.15 | 1.15 | 0.948 | 0.604 |
| ABC-1 | 0.351 | 0.274 | 0.383 | 0.315 | 0.256 | 1.17 | 1.15 | 1.07 | 1.03 | 0.845 | 0.724 | 0.891 | 0.976 | 0.899 | 0.83 | 0.943 | 0.716 | 0.771 |
| BEN | 0.965 | 0.77 | 0.911 | 0.577 | 0.588 | 0.884 | 1.07 | 1.16 | 1.27 | 1.09 | 0.985 | 1.02 | 1.17 | 0.752 | 0.941 | 0.997 | 0.781 | 0.707 |
| CAL-12T |  | 0.964 | 0.945 | 1.04 | 0.967 |  | 0.713 | 1.24 | 1.01 | 0.558 | 0.534 | 0.636 | 0.373 | 0.627 | 0.799 | 0.841 | 0.778 | 0.698 |
| COR-L23 | 1.15 | 1.12 | 1.08 | 1.06 | 0.963 | 0.73 | 0.801 | 0.799 | 0.875 | 0.307 | 0.378 | 0.32 | 0.329 | 1.01 | 1.08 | 0.863 | 0.994 | 0.819 |
| COR-L 105 | 0.646 | 0.683 | 1.01 | 0.756 | 0.32 | 0.961 | 0.847 | 0.981 | 1.49 | 0.619 | 0.673 | 0.729 | 0.732 | 0.919 | 1.01 | 1.03 | 0.797 | 0.7 |
| Calu-6 | 1.11 | 0.866 | 1.25 | 0.955 | 1.02 | 0.822 | 0.843 | 1.07 | 0.734 | 0.489 |  | 0.629 | 0.258 | 0.929 | 0.941 | 1.17 | 0.971 | 1.02 |
| ChaGo-K-1 | 1.17 | 0.955 | 1.21 | 0.967 | 0.985 |  |  |  |  | 0.435 | 0.41 | 0.421 | 0.442 |  |  |  |  |  |
| EBC-1 | 0.601 | 0.577 | 0.549 | 0.544 | 0.575 | 0.754 | 0.866 | 0.869 | 0.857 | 0.646 | 0.707 | 0.639 | 0.571 | 1.03 | 0.885 | 1.13 | 0.912 | 0.947 |
| EKVX | 0.991 | 1.1 | 1.06 | 0.996 | 0.884 | 0.868 | 1.03 | 0.82 | 1.08 | 0.777 | 0.894 | 0.725 | 0.854 | 0.442 | 1.05 | 1.04 | 1.06 | 0.707 |
| EMC-BAC-2 | 0.977 | 1.13 | 1.02 | 1.01 | 1.04 | 0.702 | 0.628 | 0.721 | 0.316 | 0.43 | 0.446 | 0.437 | 0.446 | 0.719 | 0.85 | 0.766 | 0.799 | 0.749 |
| EPLC-272H | 1.02 | 1.05 | 0.91 | 0.832 | 0.805 | 0.635 | 0.506 | 0.136 | 0.217 |  |  | 0.955 | 0.0712 | 1.13 | 1.13 | 1.38 | 1.11 | 0.812 |
| H3255 |  | 0.755 | 0.849 | 0.824 | 0.213 | 0.596 | 0.587 | 0.629 | 0.498 | 0.489 | 0.598 | 0.553 | 0.481 |  | 0.963 | 0.927 | 0.959 | 0.145 |
| HARA | 1.26 | 1.16 | 1.24 | 1.14 | 1.05 | 0.75 | 0.783 | 0.866 | 0.701 | 0.76 | 0.761 | 0.812 | 0.841 | 0.593 | 0.985 | 1.09 | 0.933 | 0.863 |
| HCC-15 | 1.02 | 1.06 | 1.05 | 0.975 | 1.1 | 0.771 | 0.648 | 0.922 | 0.555 | 0.615 | 0.624 | 0.622 | 0.598 | 0.976 | 0.905 | 0.928 | 0.858 | 0.888 |
| HCC-44 | 0.938 | 0.855 | 0.869 | 0.827 | 0.988 | 0.683 | 0.525 | 0.738 | 0.368 | 0.942 | 0.958 | 0.949 | 0.903 | 0.668 | 0.741 | 0.681 | 0.718 | 0.562 |
